From patent publication US11802110B2, “2-amino-N-(arylsulfinyl)-acetamide compounds as inhibitors of bacterial aminoacyl-tRNA synthetase” (priority 2016, dated 2023)
Values after ≈ are worked out from the molar mass of the structure shown. Where two headings read alike, the source gives them in different places.

Assays:
[1] = biological target: E. Coli LeuRS (Escherichia coli (strain K12), UniProt P07813); test: Study 2 - Isothermal titration calorimetry (ITC); format: binding; details: 25° C., pH 7.5, mean ± SD
E. Coli LeuRS, sequence (P07813 whole entry): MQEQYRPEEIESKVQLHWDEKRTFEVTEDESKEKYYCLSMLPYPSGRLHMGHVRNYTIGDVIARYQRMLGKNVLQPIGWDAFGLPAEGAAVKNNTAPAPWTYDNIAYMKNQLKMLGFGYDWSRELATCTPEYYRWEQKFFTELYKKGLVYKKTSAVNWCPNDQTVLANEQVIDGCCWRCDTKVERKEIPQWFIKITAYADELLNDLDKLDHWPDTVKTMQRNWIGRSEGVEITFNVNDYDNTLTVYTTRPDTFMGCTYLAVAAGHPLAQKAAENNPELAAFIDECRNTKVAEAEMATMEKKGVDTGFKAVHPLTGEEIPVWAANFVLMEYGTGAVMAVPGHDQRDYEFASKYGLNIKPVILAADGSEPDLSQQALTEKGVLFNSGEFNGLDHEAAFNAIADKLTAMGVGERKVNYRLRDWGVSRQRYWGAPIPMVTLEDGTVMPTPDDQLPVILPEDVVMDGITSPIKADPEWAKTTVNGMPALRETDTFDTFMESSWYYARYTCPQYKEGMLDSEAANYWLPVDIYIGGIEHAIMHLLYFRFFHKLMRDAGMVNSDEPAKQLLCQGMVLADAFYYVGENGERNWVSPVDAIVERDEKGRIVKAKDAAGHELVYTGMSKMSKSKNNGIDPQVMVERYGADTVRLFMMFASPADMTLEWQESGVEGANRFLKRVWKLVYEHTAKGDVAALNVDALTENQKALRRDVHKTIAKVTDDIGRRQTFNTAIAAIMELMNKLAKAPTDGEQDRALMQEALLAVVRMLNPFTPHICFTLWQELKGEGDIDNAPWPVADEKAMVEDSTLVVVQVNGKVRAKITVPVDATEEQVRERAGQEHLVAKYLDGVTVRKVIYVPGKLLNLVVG
Method: Escherichia coli BL21(DE3) cells transformed with plasmid pQE-60 containing the open-reading frame sequence of one targeted aaRS (i.e., LeuRS) were induced with 1 mM IPTG (isopropyl β-D-1-thiogalactopyranoside) for 3 hours at 37° C. Bacterial cells were harvested and lysed with 20 mM HEPES (4-(2-hydroxyethyl)-1-piperazinylethane-sulfonic acid) (pH 7.5), 300 mM NaCl, 15 mM imidazole and 1 mM DTT (1,4-dithio-D-threitol). The pathogenic aaRS was first purified by nickel affinity standard chromatography. The eluted protein was concentrated and then further purified by gel filtration using 50 mM HEPES (pH 7.5), 150 mM NaCl buffer.
ITC studies were carried out using a Microcal ITC200 instrument (GE Healthcare). Protein concentration was determined by spectrophotometry by measuring the absorbance at 280 nm using a theoretical molar extinction coefficient of 169,140 M^−1cm^−1. Ligand stock solutions were prepared in DMSO at 62.5 mM concentration. The titrations were performed at 25° C. with 7.5-100 μM E. Coli LeuRS in 50 mM HEPES, 150 mM NaCl, pH 7.5 buffer containing 1% DMSO (v/v). The protein solution in the 280 μL sample cell was titrated with the inhibitor solution (diluted to 75-3000 μM in the same buffer as the protein) using 1-2 μL injections every 120-140 seconds. All titrations were repeated at least two times. To correct for heats of dilution and mixing, the final baseline consisting of small peaks of identical size at the end of each experiment was subtracted. The experimental data were fitted to a theoretical titration curve (one site model) using MicroCal Origin 7 SR4 software.
Note that Compounds R-4.1 and S-4.1 (in Table 15, below) correspond to Compounds V-i and V-ii (in Tables 13 and 14, above), respectively.

[2] = Human cell viability (cytotoxicity), ATP levels by CellTiter-Glo; format: cell-based; details: HepG2 cells (ATCC HB-8065), 24 hours incubation, read-out: IC50 (μg/mL), Cytotoxicity in HepG2 ATCC HB-8065 Cell Line
Method: Compounds were assessed for potential non-specific cytotoxic effects against a human hepatic cell line (HepG2 ATCC HB-8065). 96-well plates were seeded with HepG2 cells in concentration of 15,000 cells per well in 100 μL of MEM growth media completed with 1% NEAA and 1% sodium pyruvate. Border wells were filled with 100 μL of sterile PBS. Two days upon cells incubation, the compounds were added. Compound dilutions were prepared in 96-well V-bottom plate in pure DMSO. Growth media from 5 plates were aspirated and replaced with 98.7 μL of fresh growth media. 1.28 μL of compounds prepared in V-bottom plates were transferred with multichannel pipette into test plates (78.1× dilution). Final DMSO concentration was 1.28% per well. In control wells, 1.28 μL of DMSO was added in 98.7 μL of media. Compounds were tested in duplicates. Cells were incubated with compounds for 24 hours when cell viability was assessed by measuring ATP levels. ATP levels were measured by adding 50 μL of CellTiter-Glo reagent to each well and after 5 minutes of incubation luminescence was measured with SpectraMax i3. The potential effect of tested compounds on cell viability was determined by comparing the signal obtained in presence of different concentrations of the compounds with those obtained in the presence of DMSO only. The potential effects were then calculated and presented as IC50 values (μg/mL).

[3] = test system: Acinetobacter baumannii B1931 clinical isolate; test: Study 4 - MIC by broth micro-dilution (CLSI); format: cell-based
Method: (§1) Minimum Inhibitory Concentrations (MICs) were determined by the broth micro-dilution method performed according to Clinical Laboratory Standards Institute guidelines. For testing, 5 mg/mL DMSO solutions were prepared by dissolving solids in DMSO. Standard antibiotics were prepared according to CLSI guidelines as 5 mg/mL stock solutions. Upon DMSO stock solutions preparation, the working solutions in MH media were prepared by adding 38.4 μL of stock solution to 1461.6 μL of MH media. Out of these working solutions 100 μL were transferred to wells in the third column of 96-well assay plates. Assay plates were previously filled with 50 μL of MH media in all wells except for the wells in the third column. Upon compounds and antibiotics addition, 50 μL was transferred from the third to the fourth column, then from the fourth to the fifth and so on.
(§2) MIC value was determined by visual inspection of bacterial growth within 96-well plates. The first column in which there was no visible growth of bacteria was determined as MIC value for compound or antibiotic tested in that particular row. ATCC strains were used as reference strains for which there is a determined value of MIC values for standard antibiotics. The assay is considered valid when MIC values for standard antibiotics are within CLSI designated range for ATCC strain tested.

[4] = test system: Enterobacter cloacae B1966 clinical isolate; test: Study 4 - MIC by broth micro-dilution (CLSI); format: cell-based
Method: as §1, §2

[5] = test system: Escherichia coli ATCC 25922; test: Study 4 - MIC by broth micro-dilution (CLSI); format: cell-based
Method: as §1, §2

[6] = test system: Haemophilus influenzae ATCC 49247; test: Study 4 - MIC by broth micro-dilution (CLSI); format: cell-based; details: G = H. influenzae ATCC 49247
Method: as §1, §2

[7] = test system: Klebsiella pneumoniae ATCC 700603; test: Study 4 - MIC by broth micro-dilution (CLSI); format: cell-based
Method: as §1, §2

[8] = test system: Pseudomonas aeruginosa ATCC 27853; test: Study 4 - MIC by broth micro-dilution (CLSI); format: cell-based
Method: as §1, §2

[9] = test system: Escherichia coli ATCC 25922 TolC deficient mutant (E. coli EFFLUX del); test: microbe, parasite or virus in culture; format: cell-based
Method: as §1, §2

[10] = Haemophilus influenzae, ATCC49247, read-out: MIC
[11] = Klebsiella pneumoniae, ATCC700603
[12] = Pseudomonas aeruginosa, ATCC27853

Compound	Kd [1] [nM]	ΔG [1] [kcal/mol]	ΔH [1] [kcal/mol]	IC50 at 24 h [2] [µg/mL]	MIC ([3]; Acinetobacter baumannii) [µg/mL]	MIC ([4]; Enterobacter cloacae) [µg/mL]	MIC ([5]; Escherichia coli, ATCC25922) [µg/mL]	MIC [6, 10] [µg/mL]	MIC [7, 11] [µg/mL]	MIC [8, 12] [µg/mL]	other results
COCc1cccc([S+]([O-])NC(=O)C(N)CC(C)C)c1 (stereo not drawn) [4.23]	17.5 ± 1.1	-10.58 ± 0.03	-7.06 ± 0.75	–	–	–	–	–	–	–	–
CCC(N)C(=O)N[S+]([O-])c1cccc(F)c1 (stereo not drawn) [4.10]	–	–	–	> 64	–	–	–	–	–	–	–
C[C@@H](O)[C@H]1C(=O)N2C(C(=O)O)=C(S[C@@H]3CN[C@H](C(=O)N(C)C)C3)[C@H](C)[C@H]12 [Meropenem]	–	–	–	–	–	–	–	–	–	–	MIC ([3]; F = A. baumannii B1931): 8 µg/mL (≈ 20.9 µM); MIC ([4]; C = Enterobacter cloacae B1966): 0.5 µg/mL (≈ 1.3 µM); MIC ([5]; A = E. coli ATCC 25922): 0.5 µg/mL (≈ 1.3 µM); MIC [6]: 4 µg/mL (≈ 10.4 µM); MIC ([7]; D = KI. pneumoniae ATCC 700603): 0.5 µg/mL (≈ 1.3 µM); MIC ([8]; E = P. aeruginosa ATCC 27853): >64 µg/mL; MIC ([9]; B = E. coli EFFLUX del): 0.5 µg/mL (≈ 1.3 µM)
CCC(C)C(N)C(=O)N[S+]([O-])c1ccccc1 (stereo not drawn) [4.2]	–	–	–	> 32	–	–	–	–	–	–	–
CC(C)CC(N)C(=O)N[S+]([O-])c1cc(Cl)cc(Cl)c1 (stereo not drawn) [4.36]	–	–	–	44 (≈ 136 µM)	> 64	> 64	64 (≈ 198 µM)	> 64	> 64	> 64	MIC ([9]; Escherichia coli, ATCC25922): 64 µg/mL (≈ 198 µM)
CC(C)CC(N)C(=O)N[S+]([O-])c1cccc(C#N)c1 (stereo not drawn) [4.19]	3.35 ± 0.48	-11.56 ± 0.09	-8.49 ± 0.38	> 64	64 (≈ 229 µM)	8 (≈ 28.6 µM)	2 (≈ 7.16 µM)	8 (≈ 28.6 µM)	4 (≈ 14.3 µM)	> 64	–
CC(C)CC(N)C(=O)N[S+]([O-])c1ccc(F)c(Cl)c1 (stereo not drawn) [4.37]	–	–	–	> 64	64 (≈ 209 µM)	64 (≈ 209 µM)	8 (≈ 26.1 µM)	32 (≈ 104 µM)	> 64	> 64	MIC ([9]; Escherichia coli, ATCC25922): 8 µg/mL (≈ 26.1 µM)
CC(C)CC(C)(N)C(=O)N[S+]([O-])c1ccccc1 (stereo not drawn) [4.7]	1820 ± 256	-7.84 ± 0.09	-1.66 ± 0.75	> 64	–	–	–	–	–	–	–
CC(C)CC(N)C(=O)N[S+]([O-])c1cccc(Br)c1 (stereo not drawn) [4.15]	10.6 ± 0.39	-10.88 ± 0.03	-10.74 ± 0.16	> 64	64 (≈ 192 µM)	32 (≈ 96 µM)	8 (≈ 24 µM)	8 (≈ 24 µM)	16 (≈ 48 µM)	64 (≈ 192 µM)	–
CC(C)C(N)C(=O)N[S+]([O-])c1ccccc1 (stereo not drawn) [4.5]	–	–	–	> 32	–	–	–	–	–	–	–
CC(C)CC(N)C(=O)N[S+]([O-])c1cccc(-c2ccn(C)n2)c1 (stereo not drawn) [4.26]	–	–	–	> 64	> 64	> 64	64 (≈ 191 µM)	> 64	> 64	> 64	MIC ([9]; Escherichia coli, ATCC25922): 64 µg/mL (≈ 191 µM)
CC(C)CC(N)C(=O)N[S+]([O-])c1ccc2ccccc2c1 (stereo not drawn) [4.40]	–	–	–	> 64	–	–	–	–	–	–	–
CCCC(N)C(=O)N[S+]([O-])c1ccccc1 (stereo not drawn) [4.4]	159 ± 29.4	-9.28 ± 0.11	-9.06 ± 0.28	> 64	–	–	–	–	–	–	–
